From patent US8969570B2, “Beta-lactamase inhibitors” (priority 2012, dated 2015)
Where a name gives a salt, the structure may show the parent alone.

Tests used:
Type in all cases: cell-based
Settings in all cases: β-lactam (CXA-101/Ceftolozane or ceftazidime) fixed at 4 μg/mL; compared with Avibactam (comparator compound CCC)
[1] = tested on: bacterial strains that express KPC β-lactamase (isogenic E. coli strain KPC-2); assay: Synergy MIC (sMIC) assay, KPC strain
Source text: (§1) A set of β-lactamase expressing isogenic E. coli strains was constructed by cloning a β-lactamase gene into a customized derivative of pBR322 (GenBank Accession Number J01749) and transforming the engineered plasmids into E. coli. The NdeI restriction site within the plasmid backbone of pBR322 was removed to generate pBR322 ΔNdeI. The pBR322 ΔNdeI vector itself, minus the blaTEM-1 gene, was amplified using two primers: (1) pBR-Pbla 5′-[…]-3, SEQ ID 1, a primer with an engineered NdeI restriction site at the 3′ end of the blaTEM-1 promoter and (2) pBR-vec-1 5′-[…]-3′, SEQ ID 2, a primer with an engineered BamHI restriction site at the 3′ end of the blaTEM-1 open reading frame. The chloramphenicol resistance gene, cat, was generated by PCR amplification from pKD3 (GenBank Accession Number AY048742) using primers with an engineered NdeI restriction site at the 5′ end (Pbla-cat 5′-[…]-3′, SEQ ID 3) and an engineered BamHI restriction site at the 3′ end (Vec-1-cat 5′-[…]-3′, SEQ ID 4) of the resistance gene. The two PCR products, pBR322 ΔNdeI and cat were ligated together generating pBR-CBST (pBR322 ΔNdeI ΔTEM-1::cat Seq. ID 5) which retains both the pBR322 tetracycline resistance cassette, tetA, and the plasmid origin of replication but the blaTEM-1 gene was replaced by the cat gene.
(§2) Using this engineering strategy a number of plasmids producing β-lactamase genes from different classes (see below) were generated using synthetic genes with an engineered NdeI restriction site at the 5′ end and BamHI restriction site at the 3′ end of each gene (GenScript). Both the synthetic β-lactamase genes and cat gene were ligated into the NdeI/BamHI sites of the pBR322 ΔNdeI PCR product and transformed into electrocompetent E. coli ElectroMax DH10B (Invitrogen/Life Technologies). E. coli DH10B harboring the recombinant plasmids were selected on LB agar (supplemented with 25 μg/mL tetracycline) and single isolated colonies were then inoculated into 5 mL LB media (supplemented with 25 μg/mL tetracycline), and incubated at 37° C. with aeration (250 rpm) for 18 hrs. The cultures were frozen back at −80° C. in 20% glycerol. The DNA sequence of the cloned β-lactamase genes was confirmed. The β-lactamase gene expression in the recombinant E. coli strains was driven by the blaTEM-1 promoter in the pBR-CBST plasmid and was characterized by MIC profiling of the E. coli recombinant strains against comparator β-lactam/BLI combinations in broth microdilution assay.
(§3) The synergy MIC (sMIC) assay determines the concentration of the BLI required to potentiate the activity of a fixed concentration of a β-lactam antibiotic against β-lactamase producing bacterial strains. The experimental protocol was performed according to Clinical and Laboratory Standards Institute (CLSI) guidelines with modifications as described below (CLSI guidelines can be derived from the CLSI document M07-A9 published in January 2012: “Methods for Dilution Antimicrobial Susceptibility Tests for Bacteria That Grow Aerobically; Approved Standard-Ninth Edition”). The assay is set-up by serially diluting the BLI across 11 of the 12 wells in each row of a 96-well broth microdilution assay plate, adding the β-lactam at a fixed concentration to all wells in the assay plate, inoculating the assay plate with bacterial strains, and determining the lowest concentration of BLI required to inhibit overnight bacterial growth.
(§4) To prepare for MIC testing, frozen glycerol stocks of laboratory engineered, isogenic E. coli strains, which contain cloned β-lactamase expressing plasmids were used to streak for isolated colonies on rich, selective LB agar supplemented with 25 μg/mL tetracycline to maintain the plasmid. All strains were incubated at 37° C. for 18-24 hrs.
(§5) On the day of testing, primary cultures were started by scraping off 5-10 colonies from the tetracycline supplemented LB plates containing engineered strains. […]

[2] = tested on: bacterial strains that express P99 β-lactamase (isogenic E. coli strain P99 AmpC); assay: Synergy MIC (sMIC) assay, P99 AmpC strain
Source text: as §1, §2, §3, §4, §5

[3] = tested on: bacterial strains that express SHV-12 β-lactamase (isogenic E. coli strain); assay: Synergy MIC (sMIC) assay, SHV-12 strain
Source text: as §1, §2, §3, §4, §5

[4] = tested on: bacterial strains that express OXA-15 β-lactamase (isogenic E. coli strain); assay: Synergy MIC (sMIC) assay, OXA-15 strain
Source text: as §1, §2, §3, §4, §5

[5] = tested on: bacterial strains that express CTX-M-15 β-lactamase (isogenic E. coli strain); assay: Synergy MIC (sMIC) assay, CTX-M-15 strain
Source text: as §1, with “cat gene. […]” for “cat gene.”

## CNc1nnc([C@@H]2CC[C@@H]3CN2C(=O)N3OS(=O)(=O)O)o1 [Compound 203, (2S,5R)-2-(5-(methylamino)-1,3,4-oxadiazol-2-yl)-7-oxo-1,6-diazabicyclo[3.2.1]octan-6-yl hydrogen sulfate]
[1]
  activity against bacterial strains that express KPC β-lactamase relative to Avibactam (sMIC): as active or more active than Avibactam

## O=C1N2C[C@@H](CC[C@H]2c2nncs2)N1OS(=O)(=O)O [Compound 300, (2S,5R)-7-oxo-2-(1,3,4-thiadiazol-2-yl)-1,6-diazabicyclo[3.2.1]octan-6-yl hydrogen sulfate]
[2]
  activity against bacterial strains that express P99 β-lactamase relative to Avibactam (sMIC): as active as Avibactam
[3]
  activity against bacterial strains that express SHV-12 β-lactamase relative to Avibactam (sMIC): as active as Avibactam
[4]
  activity against bacterial strains that express OXA-15 β-lactamase relative to Avibactam (sMIC): more active than Avibactam
[1]
  activity against bacterial strains that express KPC β-lactamase relative to Avibactam (sMIC): as active or more active than Avibactam
[5]
  activity against bacterial strains that express CTX-M-15 β-lactamase relative to Avibactam (sMIC): as active as Avibactam

## O=C1N2C[C@@H](CC[C@H]2c2ccon2)N1OS(=O)(=O)O [Compound 101, (2S,5R)-2-(isoxazol-3-yl)-7-oxo-1,6-diazabicyclo[3.2.1]octan-6-yl hydrogen sulfate]
[2]
  activity against bacterial strains that express P99 β-lactamase relative to Avibactam (sMIC): as active as Avibactam
[1]
  activity against bacterial strains that express KPC β-lactamase relative to Avibactam (sMIC): as active or more active than Avibactam
[5]
  activity against bacterial strains that express CTX-M-15 β-lactamase relative to Avibactam (sMIC): as active as Avibactam

## Cc1nnc([C@@H]2CC[C@@H]3CN2C(=O)N3OS(=O)(=O)O)o1 [Compound 200, (2S,5R)-2-(5-methyl-1,3,4-oxadiazol-2-yl)-7-oxo-1,6-diazabicyclo[3.2.1]octan-6-yl hydrogen sulfate]
[3]
  activity against bacterial strains that express SHV-12 β-lactamase relative to Avibactam (sMIC): as active as Avibactam
[4]
  activity against bacterial strains that express OXA-15 β-lactamase relative to Avibactam (sMIC): more active than Avibactam
[1]
  activity against bacterial strains that express KPC β-lactamase relative to Avibactam (sMIC): as active or more active than Avibactam

## O=C1N2C[C@@H](CC[C@H]2c2ncns2)N1OS(=O)(=O)O [Compound 500, (2S,5R)-7-oxo-2-(1,2,4-thiadiazol-5-yl)-1,6-diazabicyclo[3.2.1]octan-6-yl hydrogen sulfate]
[2]
  activity against bacterial strains that express P99 β-lactamase relative to Avibactam (sMIC): as active as Avibactam

## CCc1nnc([C@@H]2CC[C@@H]3CN2C(=O)N3OS(=O)(=O)O)o1 [Compound 201, (2S,5R)-2-(5-ethyl-1,3,4-oxadiazol-2-yl)-7-oxo-1,6-diazabicyclo[3.2.1]octan-6-yl hydrogen sulfate]
[4]
  activity against bacterial strains that express OXA-15 β-lactamase relative to Avibactam (sMIC): more active than Avibactam
[1]
  activity against bacterial strains that express KPC β-lactamase relative to Avibactam (sMIC): as active or more active than Avibactam

## CCOC(=O)c1noc([C@@H]2CC[C@@H]3CN2C(=O)N3OS(=O)(=O)O)n1 [Compound 402, ethyl 5-((2S,5R)-7-oxo-6-(sulfooxy)-1,6-diazabicyclo[3.2.1]octan-2-yl)-1,2,4-oxadiazole-3-carboxylate]
[3]
  activity against bacterial strains that express SHV-12 β-lactamase relative to Avibactam (sMIC): as active as Avibactam

## O=C1N2C[C@@H](CC[C@H]2c2nnc(N3CCNCC3)s2)N1OS(=O)(=O)O [Compound 302, (2S,5R)-7-oxo-2-(5-(piperazin-1-yl)-1,3,4-thiadiazol-2-yl)-1,6-diazabicyclo[3.2.1]octan-6-yl hydrogen sulfate]
[3]
  activity against bacterial strains that express SHV-12 β-lactamase relative to Avibactam (sMIC): as active as Avibactam
[4]
  activity against bacterial strains that express OXA-15 β-lactamase relative to Avibactam (sMIC): more active than Avibactam
[1]
  activity against bacterial strains that express KPC β-lactamase relative to Avibactam (sMIC): as active or more active than Avibactam

## CN1CCN(c2nnc([C@@H]3CC[C@@H]4CN3C(=O)N4OS(=O)(=O)O)o2)CC1 [Compound 205, (2S,5R)-2-(5-(4-methylpiperazin-1-yl)-1,3,4-oxadiazol-2-yl)-7-oxo-1,6-diazabicyclo[3.2.1]octan-6-yl hydrogen sulfate]
[4]
  activity against bacterial strains that express OXA-15 β-lactamase relative to Avibactam (sMIC): more active than Avibactam
[1]
  activity against bacterial strains that express KPC β-lactamase relative to Avibactam (sMIC): as active or more active than Avibactam

## O=C1N2C[C@@H](CC[C@H]2c2nnc(C3CNCCO3)o2)N1OS(=O)(=O)O (stereo partly drawn) [Compound 206, (2S,5R)-2-(5-(morpholin-2-yl)-1,3,4-oxadiazol-2-yl)-7-oxo-1,6-diazabicyclo[3.2.1]octan-6-yl hydrogen sulfate]
[2]
  activity against bacterial strains that express P99 β-lactamase relative to Avibactam (sMIC): as active as Avibactam
[4]
  activity against bacterial strains that express OXA-15 β-lactamase relative to Avibactam (sMIC): more active than Avibactam
[1]
  activity against bacterial strains that express KPC β-lactamase relative to Avibactam (sMIC): as active or more active than Avibactam

## NC(=O)c1noc([C@@H]2CC[C@@H]3CN2C(=O)N3OS(=O)(=O)O)n1 [Compound 401, (2S,5R)-2-(3-carbamoyl-1,2,4-oxadiazol-5-yl)-7-oxo-1,6-diazabicyclo[3.2.1]octan-6-yl hydrogen sulfate]
[3]
  activity against bacterial strains that express SHV-12 β-lactamase relative to Avibactam (sMIC): as active as Avibactam
[1]
  activity against bacterial strains that express KPC β-lactamase relative to Avibactam (sMIC): as active or more active than Avibactam

## NCc1nnc([C@@H]2CC[C@@H]3CN2C(=O)N3OS(=O)(=O)O)s1 [Compound 301, (2S,5R)-2-(5-(aminomethyl)-1,3,4-thiadiazol-2-yl)-7-oxo-1,6-diazabicyclo[3.2.1]octan-6-yl hydrogen sulfate]
[2]
  activity against bacterial strains that express P99 β-lactamase relative to Avibactam (sMIC): as active as Avibactam
[3]
  activity against bacterial strains that express SHV-12 β-lactamase relative to Avibactam (sMIC): as active as Avibactam
[4]
  activity against bacterial strains that express OXA-15 β-lactamase relative to Avibactam (sMIC): more active than Avibactam
[1]
  activity against bacterial strains that express KPC β-lactamase relative to Avibactam (sMIC): as active or more active than Avibactam

## NC(=O)c1cc([C@@H]2CC[C@@H]3CN2C(=O)N3OS(=O)(=O)O)no1 [Compound 103, (2S,5R)-2-(5-carbamoylisoxazol-3-yl)-7-oxo-1,6-diazabicyclo[3.2.1]octan-6-yl hydrogen sulfate]
[3]
  activity against bacterial strains that express SHV-12 β-lactamase relative to Avibactam (sMIC): as active as Avibactam
[1]
  activity against bacterial strains that express KPC β-lactamase relative to Avibactam (sMIC): as active or more active than Avibactam

## N#Cc1cc([C@@H]2CC[C@@H]3CN2C(=O)N3OS(=O)(=O)O)no1 [Compound 102, (2S,5R)-2-(5-cyanoisoxazol-3-yl)-7-oxo-1,6-diazabicyclo[3.2.1]octan-6-yl hydrogen sulfate]
[1]
  activity against bacterial strains that express KPC β-lactamase relative to Avibactam (sMIC): as active or more active than Avibactam

## CN1CCC(c2nnc([C@@H]3CC[C@@H]4CN3C(=O)N4OS(=O)(=O)O)o2)CC1 [Compound 204, (2S,5R)-2-(5-(1-methylpiperidin-4-yl)-1,3,4-oxadiazol-2-yl)-7-oxo-1,6-diazabicyclo[3.2.1]octan-6-yl hydrogen sulfate]
[2]
  activity against bacterial strains that express P99 β-lactamase relative to Avibactam (sMIC): as active as Avibactam
[4]
  activity against bacterial strains that express OXA-15 β-lactamase relative to Avibactam (sMIC): more active than Avibactam
[1]
  activity against bacterial strains that express KPC β-lactamase relative to Avibactam (sMIC): as active or more active than Avibactam
